{
  "source": "patent US11059828B2",
  "about": "“Disubstituted octahydropyrrolo[3,4-C]pyrroles as orexin receptor modulators” (Janssen Pharmaceutica NV, priority 2009, dated 2021)",
  "target": "human orexin-2 receptor (Homo sapiens (Human), UniProt O43614)",
  "sequence (O43614 whole entry)": "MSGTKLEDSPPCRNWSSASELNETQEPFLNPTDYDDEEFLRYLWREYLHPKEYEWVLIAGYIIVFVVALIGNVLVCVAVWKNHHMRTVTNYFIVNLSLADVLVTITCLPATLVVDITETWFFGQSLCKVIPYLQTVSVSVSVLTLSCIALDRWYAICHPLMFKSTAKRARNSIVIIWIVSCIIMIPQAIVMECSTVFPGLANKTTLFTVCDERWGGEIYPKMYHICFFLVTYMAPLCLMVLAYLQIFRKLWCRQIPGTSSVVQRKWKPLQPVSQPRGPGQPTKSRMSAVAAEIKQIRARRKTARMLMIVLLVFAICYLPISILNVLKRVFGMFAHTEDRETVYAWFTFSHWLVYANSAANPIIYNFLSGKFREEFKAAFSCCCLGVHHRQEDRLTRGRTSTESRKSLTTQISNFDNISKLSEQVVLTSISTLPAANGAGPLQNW",
  "assay": "Human Orexin 2 Receptor Radioligand Binding Studies ([3H]-EMPA competition)",
  "conditions": "HEK293 cells stably expressing human orexin-2 receptor; [3H]-EMPA 5 nM; apparent Ki; read-out: OR 2 Ki",
  "data": [
    {"compound": "O=C(c1cccc(F)c1-n1nccn1)N1CC2CN(c3cnc4cc(F)c(F)cc4n3)CC2C1", "note": "(stereo not shown) [Example 244, (5-(6,7-Difluoroquinoxalin-2-yl)hexahydropyrrolo[3,4-c]pyrrol-2(1H)-yl)(3-fluoro-2-(2H-1,2,3-triazol-2-yl)phenyl)methanone]", "values": [
      {"measurement": "Ki", "value": 18, "unit": "nM"}
    ]}
  ]
}
